The values that follow come from PubChem BioAssay (NCI).

Among the test systems are A498 renal; HOP-62 NSCLC; HS 578T breast; OVCAR-3 ovarian; OVCAR-4 ovarian; OVCAR-8 ovarian; SK-MEL-28 melanoma; SW-620 colon; T-47D breast; U251 CNS.
Common to all, as to assay: NCI anticancer screen, dose series, 48 h

Structures are written as SMILES.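 Values below derive from 48-hour exposures of cells grown in 96-well plates, with endpoints linearly interpolated between the two concentrations bracketing the appropriate inhibition level. GI50 marks 50% less growth. The concentration for full growth arrest is given as TGI.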 *1 amine or outer side, *2 acyl side, *3 side chain or, on linkers, in order; H or OH if unused. Where a SMILES comes first, the peptide text is derived from it. Bridges are numbered along the chain shown (N, C = ends). [ ]: non-standard residue; d: D form. ξ: configuration not given here. X35 = CC[C@H](C)[C@@H](N[*:1])[C@@H](O)CC(=O)O[C@H](C(=O)[C@H](C)C(=O)[*:2])C(C)C; NMeY = CN[C@@H](Cc1ccc(O)cc1)C(=O)O; dNMeL = CN[C@H](CC(C)C)C(=O)O; ξΔPro = O=C(O)C1C=CCN1

Consider `CCN1CCCn2c(=O)[nH]c3cc(Br)cc1c32`, for which the TGI is above 100 µM with A498 renal; above 100 µM with HOP-62 NSCLC; 97.2 µM in the assay on HS 578T breast; above 100 µM in the assay on OVCAR-3 ovarian; above 100 µM with OVCAR-4 ovarian; above 100 µM in the assay with OVCAR-8 ovarian. The TGI with SK-MEL-28 melanoma, in the assay with SW-620 colon, in the assay with T-47D breast and with U251 CNS was above 100 µM each time.
Consider `Cc1cc2nc(-c3c(N)ncc(C#N)c3-c3ccc(Cl)cc3)[nH]c2cc1C`, for which the GI50 in the assay on A498 renal is 11.8 µM; in the assay with HOP-62 NSCLC, 6.36 µM; in the assay with HS 578T breast it was 12 µM; with OVCAR-3 ovarian it was 13.9 µM; with OVCAR-4 ovarian, 4.4 µM; with OVCAR-8 ovarian it was 4.53 µM. The GI50 in the assay with SK-MEL-28 melanoma is 5.8 µM; in the assay on SW-620 colon, 32.4 µM; with T-47D breast, 4.63 µM; in the assay on U251 CNS, 5.48 µM. In addition, the TGI in the assay on A498 renal is 59.2 µM; in the assay with HOP-62 NSCLC, 21.7 µM; in the assay with HS 578T breast, above 100 µM; in the assay on OVCAR-3 ovarian, 76 µM; with OVCAR-4 ovarian it was 25.4 µM; in the assay on OVCAR-8 ovarian, 29.6 µM. Moreover, the TGI with SK-MEL-28 melanoma was 40.2 µM; in the assay with SW-620 colon, above 100 µM; with T-47D breast, above 100 µM; in the assay on U251 CNS it was 21.4 µM.
`C=CCOC1(CC=C)C(=O)OC2C(O)COC21O` (configuration not stated): the TGI in the assay on A498 renal, in the assay with HOP-62 NSCLC, with HS 578T breast, with OVCAR-3 ovarian, in the assay on OVCAR-4 ovarian and in the assay on OVCAR-8 ovarian was above 100 µM in each case. For the same compound, the TGI in the assay on SK-MEL-28 melanoma, in the assay on SW-620 colon, in the assay with T-47D breast and with U251 CNS was above 100 µM in each case.
`COC1(OC)C=CC(=O)C=C1`: the TGI in the assay with A498 renal is above 91.2 µM; in the assay on HOP-62 NSCLC, 24.5 µM; in the assay on HS 578T breast, above 40.5 µM; in the assay on OVCAR-3 ovarian it was 12.4 µM; with OVCAR-4 ovarian it was 16.7 µM; in the assay with OVCAR-8 ovarian, 7.61 µM. Besides, the TGI in the assay with SK-MEL-28 melanoma was 4.16 µM; with SW-620 colon it was 3.12 µM; with T-47D breast, 10.7 µM; in the assay on U251 CNS, 4.9 µM.
For `COc1ccc(NC(=O)CC(=O)N2N=C(N(c3ccccc3)c3ccccc3)CC2c2ccccc2)cc1` (configuration not stated), the TGI in the assay with A498 renal, with HOP-62 NSCLC, in the assay with HS 578T breast, in the assay with OVCAR-3 ovarian, in the assay on OVCAR-4 ovarian and with OVCAR-8 ovarian was above 100 µM throughout. Also, the TGI in the assay with SK-MEL-28 melanoma, in the assay on SW-620 colon, in the assay on T-47D breast and with U251 CNS was above 100 µM each time.
With `CC(=Nc1cc(Cl)cc(Cl)c1)c1ccncc1`, the TGI with A498 renal, in the assay on HOP-62 NSCLC, with HS 578T breast, in the assay on OVCAR-3 ovarian, with OVCAR-4 ovarian and in the assay with OVCAR-8 ovarian was above 100 µM in each case. In addition, the TGI in the assay with SK-MEL-28 melanoma, with SW-620 colon, in the assay on T-47D breast and in the assay on U251 CNS was above 100 µM each time.
For `CC(C#N)N(CCc1ccccc1)C(=O)c1ccccc1` (configuration not stated), the TGI in the assay with A498 renal, in the assay with HOP-62 NSCLC, in the assay with HS 578T breast, with OVCAR-3 ovarian, with OVCAR-4 ovarian and in the assay on OVCAR-8 ovarian was above 100 µM in each case. The TGI in the assay with SW-620 colon, in the assay on T-47D breast and in the assay with U251 CNS was above 100 µM in each case.
As for `N#C/C(=C1/c2cc([N+](=O)[O-])ccc2-c2c1cc([N+](=O)[O-])cc2[N+](=O)[O-])N1CCCCC1`, the TGI was above 100 µM with A498 renal; above 100 µM in the assay with HOP-62 NSCLC; above 100 µM in the assay on HS 578T breast; above 100 µM in the assay with OVCAR-3 ovarian; 69.7 µM in the assay with OVCAR-4 ovarian; above 100 µM in the assay on OVCAR-8 ovarian. Further, the TGI with SK-MEL-28 melanoma, in the assay with SW-620 colon, in the assay on T-47D breast and in the assay with U251 CNS was above 100 µM in each case.
Turning to `COc1cc(CNC(=S)CCCCCCCCCCC(C)C)ccc1O`, the TGI with A498 renal was above 100 µM; in the assay on HOP-62 NSCLC it was above 100 µM; with HS 578T breast it was 83.7 µM; with OVCAR-4 ovarian, above 100 µM; in the assay on OVCAR-8 ovarian it was above 100 µM; in the assay on SK-MEL-28 melanoma, above 100 µM. The TGI is above 100 µM in the assay on SW-620 colon, 97.5 µM in the assay on T-47D breast and above 100 µM with U251 CNS.
As to `CC[C@H](C)[C@H]1NC(=O)[C@@H](NC(=O)[C@@H](CC(C)C)N(C)C(=O)C2C=CCN2)[C@@H](C)OC(=O)[C@H](Cc2ccc(OC)cc2)N(C)C(=O)[C@@H]2CCCN2C(=O)[C@H](CC(C)C)NC(=O)[C@@H](C)C(=O)[C@H](C(C)C)OC(=O)C[C@@H]1O` (some centres not stated) (H-[ξΔPro][dNMeL]T[X35]LP[NMeY](Me); ester 3-C), the TGI in the assay on A498 renal is 0.0139 µM; with HOP-62 NSCLC it was 0.0363 µM; in the assay with HS 578T breast, below 0.005 µM; with OVCAR-4 ovarian it was below 0.005 µM; in the assay with OVCAR-8 ovarian, 0.0118 µM; with SK-MEL-28 melanoma, below 0.005 µM. The TGI was above 50 µM in the assay with SW-620 colon, 0.136 µM in the assay on T-47D breast and 0.738 µM with U251 CNS.
